Measurements taken from ChEMBL document CHEMBL1212896, “Discovery of novel cyanodihydropyridines as potent mineralocorticoid receptor antagonists” (J Med Chem, 2010).

What was measured:
[1] = target: T1, Mineralocorticoid receptor (Homo sapiens, UniProt P08235)
T1 sequence (P08235 whole entry): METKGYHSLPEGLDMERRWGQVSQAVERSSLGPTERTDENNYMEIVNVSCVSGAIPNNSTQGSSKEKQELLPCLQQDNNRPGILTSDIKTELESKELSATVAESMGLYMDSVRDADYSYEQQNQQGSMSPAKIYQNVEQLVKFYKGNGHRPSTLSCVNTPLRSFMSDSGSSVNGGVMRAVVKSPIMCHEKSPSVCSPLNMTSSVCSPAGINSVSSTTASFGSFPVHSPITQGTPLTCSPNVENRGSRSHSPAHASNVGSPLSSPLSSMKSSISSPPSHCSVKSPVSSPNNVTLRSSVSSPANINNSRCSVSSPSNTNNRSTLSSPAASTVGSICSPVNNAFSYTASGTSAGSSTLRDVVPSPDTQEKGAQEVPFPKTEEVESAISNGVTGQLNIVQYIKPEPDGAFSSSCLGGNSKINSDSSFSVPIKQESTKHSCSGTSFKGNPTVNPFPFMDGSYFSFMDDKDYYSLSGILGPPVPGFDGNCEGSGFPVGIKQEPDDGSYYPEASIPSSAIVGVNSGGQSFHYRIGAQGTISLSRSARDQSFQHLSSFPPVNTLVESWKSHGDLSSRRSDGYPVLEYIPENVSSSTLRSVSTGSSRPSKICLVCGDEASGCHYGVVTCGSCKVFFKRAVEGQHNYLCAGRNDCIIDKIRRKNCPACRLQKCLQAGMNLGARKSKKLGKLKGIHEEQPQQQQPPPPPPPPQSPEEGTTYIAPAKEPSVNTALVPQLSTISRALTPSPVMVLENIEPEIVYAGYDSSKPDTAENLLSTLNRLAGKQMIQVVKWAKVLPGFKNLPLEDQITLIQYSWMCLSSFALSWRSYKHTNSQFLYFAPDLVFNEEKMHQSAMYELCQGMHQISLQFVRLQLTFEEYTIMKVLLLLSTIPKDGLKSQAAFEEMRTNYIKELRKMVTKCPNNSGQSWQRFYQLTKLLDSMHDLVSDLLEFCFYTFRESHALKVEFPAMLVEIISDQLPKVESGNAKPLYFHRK
Description: Antagonist activity at mineralocorticoid receptor LBD expressed in human HUH7 cells coexpressing GAL4 by luciferase reporter gene assay

Liver microsomes [2] = test: Metabolic stability in human liver microsomes assessed as compound remaining; assay type: ADME, Microsome; further: time not given here
[3] = Solubility of the compound; assay type: physicochemical
Glucocorticoid receptor = target: T2, Glucocorticoid receptor (Homo sapiens, UniProt P04150); test: Antagonist activity at glucocorticoid receptor LBD expressed in human HUH7 cells coexpressing GAL4 by luciferase reporter gene assay; assay type: functional, cell-based, Huh-7
T2 sequence (P04150 whole entry): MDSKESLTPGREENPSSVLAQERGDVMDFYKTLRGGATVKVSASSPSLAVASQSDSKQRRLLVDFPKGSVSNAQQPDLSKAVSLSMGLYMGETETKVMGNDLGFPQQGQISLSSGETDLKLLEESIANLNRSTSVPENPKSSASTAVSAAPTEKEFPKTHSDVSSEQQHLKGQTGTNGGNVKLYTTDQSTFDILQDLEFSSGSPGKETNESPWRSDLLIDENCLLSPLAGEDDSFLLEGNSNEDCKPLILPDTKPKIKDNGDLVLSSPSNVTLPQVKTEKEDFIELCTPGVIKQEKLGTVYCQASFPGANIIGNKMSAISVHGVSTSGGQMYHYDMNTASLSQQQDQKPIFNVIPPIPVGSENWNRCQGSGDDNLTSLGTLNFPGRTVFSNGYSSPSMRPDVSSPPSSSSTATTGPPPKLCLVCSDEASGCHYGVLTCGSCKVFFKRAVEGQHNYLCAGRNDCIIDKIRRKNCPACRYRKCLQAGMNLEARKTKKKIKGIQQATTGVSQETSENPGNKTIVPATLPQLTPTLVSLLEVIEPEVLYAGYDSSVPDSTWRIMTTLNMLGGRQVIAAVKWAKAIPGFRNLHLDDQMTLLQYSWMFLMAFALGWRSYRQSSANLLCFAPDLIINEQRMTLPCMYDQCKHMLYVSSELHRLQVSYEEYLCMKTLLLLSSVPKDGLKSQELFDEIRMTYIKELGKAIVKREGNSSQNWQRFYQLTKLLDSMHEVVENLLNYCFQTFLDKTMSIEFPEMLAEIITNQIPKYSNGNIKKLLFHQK

Liver microsomes [4] = test: Metabolic stability in rat liver microsomes assessed as compound remaining; assay type: ADME, Microsome; further: time not given here
Androgen receptor = target: T3, Androgen receptor (Homo sapiens, UniProt P10275); test: Antagonist activity at androgen receptor LBD expressed in human HUH7 cells coexpressing GAL4 by luciferase reporter gene assay; assay type: functional, cell-based, Huh-7
T3 sequence (P10275 whole entry): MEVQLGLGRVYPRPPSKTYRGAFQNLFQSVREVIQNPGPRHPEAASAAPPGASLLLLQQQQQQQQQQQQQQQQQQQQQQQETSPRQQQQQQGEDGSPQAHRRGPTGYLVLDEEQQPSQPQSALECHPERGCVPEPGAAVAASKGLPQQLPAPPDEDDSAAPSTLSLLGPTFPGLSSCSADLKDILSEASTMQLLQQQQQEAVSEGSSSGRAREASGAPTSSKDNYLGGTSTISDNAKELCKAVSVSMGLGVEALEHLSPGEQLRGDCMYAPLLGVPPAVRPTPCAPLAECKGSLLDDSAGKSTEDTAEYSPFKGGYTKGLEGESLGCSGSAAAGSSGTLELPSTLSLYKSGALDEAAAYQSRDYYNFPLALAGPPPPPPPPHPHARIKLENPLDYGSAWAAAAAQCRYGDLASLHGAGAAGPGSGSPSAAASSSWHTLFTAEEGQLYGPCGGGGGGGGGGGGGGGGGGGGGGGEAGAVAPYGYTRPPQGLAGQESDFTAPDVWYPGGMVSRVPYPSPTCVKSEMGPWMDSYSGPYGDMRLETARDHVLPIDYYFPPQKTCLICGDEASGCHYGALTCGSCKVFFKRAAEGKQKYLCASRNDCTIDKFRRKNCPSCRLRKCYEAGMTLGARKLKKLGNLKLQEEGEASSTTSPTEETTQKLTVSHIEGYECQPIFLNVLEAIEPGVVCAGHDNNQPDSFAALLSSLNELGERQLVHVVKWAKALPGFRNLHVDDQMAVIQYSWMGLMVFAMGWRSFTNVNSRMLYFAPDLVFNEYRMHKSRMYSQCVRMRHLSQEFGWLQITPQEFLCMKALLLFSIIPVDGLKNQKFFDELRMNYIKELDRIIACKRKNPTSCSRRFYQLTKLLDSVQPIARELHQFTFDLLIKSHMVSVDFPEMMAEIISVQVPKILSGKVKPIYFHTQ

Progesterone receptor = target: T4, Progesterone receptor (Homo sapiens, UniProt P06401); test: Antagonist activity at progesterone receptor LBD expressed in human HUH7 cells coexpressing GAL4 by luciferase reporter gene assay; assay type: functional, cell-based, Huh-7
T4 sequence (P06401 whole entry): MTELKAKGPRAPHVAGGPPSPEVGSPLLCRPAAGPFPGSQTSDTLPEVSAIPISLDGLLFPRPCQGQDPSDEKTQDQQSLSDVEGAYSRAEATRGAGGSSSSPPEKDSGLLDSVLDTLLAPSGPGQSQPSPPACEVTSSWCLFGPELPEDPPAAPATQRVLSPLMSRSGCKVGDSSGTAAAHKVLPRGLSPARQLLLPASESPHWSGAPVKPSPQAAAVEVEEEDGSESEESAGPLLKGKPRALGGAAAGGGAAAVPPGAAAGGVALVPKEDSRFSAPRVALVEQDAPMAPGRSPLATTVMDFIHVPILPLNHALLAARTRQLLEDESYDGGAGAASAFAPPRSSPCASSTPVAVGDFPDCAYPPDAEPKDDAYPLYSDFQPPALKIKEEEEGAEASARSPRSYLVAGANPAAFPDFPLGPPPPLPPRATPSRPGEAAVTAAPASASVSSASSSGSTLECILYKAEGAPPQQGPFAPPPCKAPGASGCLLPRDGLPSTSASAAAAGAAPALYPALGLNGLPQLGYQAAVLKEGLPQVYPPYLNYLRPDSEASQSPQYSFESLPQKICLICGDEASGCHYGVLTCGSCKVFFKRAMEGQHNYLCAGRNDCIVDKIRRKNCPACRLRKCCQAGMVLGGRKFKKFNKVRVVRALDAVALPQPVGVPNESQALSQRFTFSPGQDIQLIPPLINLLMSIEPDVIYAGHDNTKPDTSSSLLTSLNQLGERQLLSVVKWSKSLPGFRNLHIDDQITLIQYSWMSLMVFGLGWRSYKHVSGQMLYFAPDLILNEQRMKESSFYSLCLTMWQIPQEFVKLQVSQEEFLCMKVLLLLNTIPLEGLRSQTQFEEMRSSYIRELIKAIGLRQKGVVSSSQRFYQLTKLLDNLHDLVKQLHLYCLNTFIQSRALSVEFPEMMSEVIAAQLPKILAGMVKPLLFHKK

Structure (SMILES) | IC50 [1] | other results
COC(=O)C1=C(C)NC(C)=C(C(=O)OC(C)(C)C)C1c1cccc(Cl)c1 (centres undefined) | 518 nM | 
COCCN1C(C)=C(C#N)C(c2ccc(F)cc2F)C(C(=O)OC(C)(C)C)=C1C (centres undefined) | 3740 nM | 
COC(=O)C1=C(C)NC(C)=C(C(=O)OC(C)(C)C)C1c1cccc(O)c1 (centres undefined) | 2830 nM | 
COC(=O)C1=C(C)NC(C)=C(C(=O)OC(C)(C)C)C1c1ccccc1C(F)(F)F (centres undefined) | 224 nM | 
COC(=O)C1=C(C)NC(C)=C(C(=O)OC(C)(C)C)C1c1ccccc1OC (centres undefined) | 553 nM | 
CCC1=C(C(=O)OC)C(c2ccccc2Cl)C(C#N)=C(C)N1 (centres undefined) | 232 nM | 
CCCCC1=C(C(=O)OC)C(c2ccccc2Cl)C(C#N)=C(C)N1 (centres undefined) | 58 nM | Stability (Liver microsomes [2]): 11%; solubility [3]: < 5 µM; IC50 (Glucocorticoid receptor): 1600 nM; Stability (Liver microsomes [4]): 3%; IC50 (Androgen receptor): 900 nM; IC50 (Progesterone receptor): 300 nM
COC(=O)C1=C(C)NC(C)=C(C(=O)OC(C)(C)C)C1c1ccc(OC)cc1 (centres undefined) | 2620 nM | 
COC(=O)C1=C(C)NC(C)=C(C(=O)OC(C)(C)C)C1c1ccccc1F (centres undefined) | 2020 nM | 
COC(=O)C1=C(C)NC(C)=C(C(=O)OC(C)(C)C)C1c1ccc(F)cc1Cl (centres undefined) | 78 nM | 
CCOC(=O)C1=C(c2ccc(Cl)cc2)NC(C)=C(C#N)C1c1ccccc1Cl (centres undefined) | 1090 nM | 
CC1=C(C#N)C(C)(c2ccc(F)cc2)C(C(=O)OC(C)(C)C)=C(C)N1 (centres undefined) | 661 nM | 
COC(=O)C1=C(C)NC(C)=C(C(=O)OC(C)(C)C)C1c1ccccc1Cl (centres undefined) | 621 nM | 
CCOC(=O)C1=C(c2ccccc2)NC(C)=C(C#N)C1c1ccccc1Cl (centres undefined) | 923 nM | 
CC1=C(C#N)C(c2ccc(F)cc2F)C(C(=O)OC(C)(C)C)=C(C)N1 (centres undefined) | 201 nM | 
COC(=O)C1=C(C)NC(C)=C(C#N)C1c1ccccc1Cl (centres undefined) | 594 nM | 
COC(=O)C1=C(C)NC(C)=C(C(=O)OC(C)(C)C)C1c1ccccc1C (centres undefined) | 208 nM | 
CCN1C(C)=C(C#N)C(c2ccc(F)cc2F)C(C(=O)OC(C)(C)C)=C1C (centres undefined) | 1620 nM | 
